# Experimental data published in US20260070945A1, “MACROCYCLIC IMMUNOMODULATORS” (Bristol-Myers Squibb Company, priority 2022, published 2026).
# *1 amine or outer side, *2 acyl side, *3 side chain or, on linkers, in order; H or OH if unused. Where a SMILES comes first, the peptide text is derived from it. Bridges are numbered along the chain shown (N, C = ends). [ ]: non-standard residue; d: D form. The star is where a group is joined. ξ: configuration not given here. X3 = NCCC[C@H](NC(=O)CNCCNCCN*)C(=O)NCCCCCCCCCCC(=O)O; Phe(3-CF3) = N[C@@H](Cc1cccc(C(F)(F)F)c1)C(=O)O; Phe(4-COOH) = N[C@@H](Cc1ccc(C(=O)O)cc1)C(=O)O; Bip = N[C@@H](Cc1ccc(-c2ccccc2)cc1)C(=O)O; Phe(3-Me) = Cc1cccc(C[C@H](N)C(=O)O)c1; γGlu = O=C(O)[C@H](CCC(=O)[*:2])N[*:1]; Abu(3S-NH2) = C[C@H](N)[C@H](N)C(=O)O; NH(CH2)12COOH = O=C(O)CCCCCCCCCCCCN*; Val(3-OH) = CC(C)(O)[C@H](N)C(=O)O; Cha = N[C@@H](CC1CCCCC1)C(=O)O; Cit = NC(=O)NCCC[C@H](N)C(=O)O; Ile(3ξ) = CCC(C)[C@H](N)C(=O)O; NMeN = CN[C@@H](CC(N)=O)C(=O)O; Thr(3ξ) = CC(O)[C@H](N)C(=O)O; 12Ado = NCCCCCCCCCCCC(=O)O; Carboxymethyl = O=C(O)C*; NMeA = CN[C@@H](C)C(=O)O; Orn = NCCC[C@H](N)C(=O)O; Aun = NCCCCCCCCCCC(=O)O; Dab = NCC[C@H](N)C(=O)O; Dap = NC[C@H](N)C(=O)O; AEEA = NCCOCCOCC(=O)O
# Target: T1, PD-1/PD-L1 interaction (PE-labeled human PD-L1-Ig binding to Jurkat cell line over-expressing human PD-1) (Homo sapiens, UniProt Q15116)
# T1 construct: expressed in transfected cells; host or cells: Jurkat
# Experiment: Jurkat-PD-1 Cell Binding High-Content Screening Assay (CBA)
# Settings: Jurkat-hPD-1 cells, PE-labeled PD-L1-Ig 20 nM final; read-out: Jurkat HPD1 PDL1 IC50
# In short: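 Read-out: high-content imaging of cell-bound PE fluorescence, with Hoechst 33342 nuclear counterstain after paraformaldehyde fixation. Before labeled ligand (20 nM final, 1 h) was added, compound sat on the cells for 2 h at 37 °C in DMEM/10% FCS.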
# T1 sequence (Q15116 25-288): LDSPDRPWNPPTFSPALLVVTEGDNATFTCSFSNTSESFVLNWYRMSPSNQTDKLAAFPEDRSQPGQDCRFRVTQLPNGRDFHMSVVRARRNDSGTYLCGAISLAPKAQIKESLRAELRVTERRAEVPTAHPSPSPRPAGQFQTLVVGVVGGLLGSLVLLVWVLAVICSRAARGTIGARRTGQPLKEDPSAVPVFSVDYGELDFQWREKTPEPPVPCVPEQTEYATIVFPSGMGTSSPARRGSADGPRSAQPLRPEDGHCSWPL
row,Compound,IC50 [nM]
1,CC(C)C[C@@H]1NC(=O)[C@H](Cc2c[nH]c3ccccc23)NC(=O)[C@H](CC(=O)O)NC(=O)[C@H](Cc2ccc(OCC(=O)O)cc2)NC(=O)[C@H](Cc2ccc(OCC(=O)O)cc2)NC(=O)CSC[C@@H](C(=O)NCCOCCOCC(=O)NCCCCCCCCCCC(=O)O)NC(=O)[C@H](CO)NC(=O)[C@H](C(C)(C)O)NC(=O)[C@H](CC2CCCCC2)NC(=O)[C@H](CC(N)=O)NC(=O)[C@@H](CC(C)C)NC(=O)[C@H](C)N(C)C(=O)[C@H](C(C)C)NC(=O)[C@H](Cc2ccc(-c3ccccc3)cc2)NC1=O [Example 2446] ({CH2CO}-Y(Carboxymethyl)Y(Carboxymethyl)DWL[Bip]V[NMeA][dL]N[Cha][Val(3-OH)]SC[AEEA][Aun]-OH; thioether N-14),239
2,CC(C)C[C@H]1NC(=O)[C@H](CC(N)=O)N(C)C(=O)[C@H](C(C)C)NC(=O)[C@H](Cc2ccc(-c3ccccc3)cc2)NC(=O)[C@H](C(C)C)NC(=O)[C@H](Cc2c[nH]c3ccccc23)NC(=O)[C@H](CC(=O)O)NC(=O)[C@H](Cc2ccc(OCC(=O)O)cc2)NC(=O)[C@H](C(C)O)NC(=O)CSC[C@@H](C(=O)N[C@@H](CCN)C(=O)NCCCCCCCCCCC(=O)O)NC(=O)[C@H](C(C)O)NC(=O)[C@H](C(C)C)NC(=O)[C@H](CC2CCCCC2)NC(=O)[C@H](CCN)NC1=O (stereo partly drawn) [Example 2243] ({CH2CO}-[Thr(3ξ)]Y(Carboxymethyl)DWV[Bip]V[NMeN][dL][Dab][Cha]V[Thr(3ξ)]C[Dab][Aun]-OH; thioether N-14),26
3,Cc1cccc(C[C@@H]2NC(=O)[C@H](CC(=O)O)NC(=O)[C@H](Cc3cnc[nH]3)NC(=O)[C@H](Cc3ccc(OCC(=O)O)cc3)NC(=O)CSC[C@@H](C(=O)NCCCCCCCCCCC(=O)O)NC(=O)[C@H](CCCNC(N)=O)NC(=O)[C@H](C(C)C)NC(=O)[C@H](CC3CCCCC3)NC(=O)[C@H](CCN)NC(=O)[C@@H](CC(C)C)NC(=O)[C@H](C)N(C)C(=O)[C@H](Cc3ccc(O)cc3)NC(=O)[C@H](Cc3ccc(-c4ccccc4)cc3)NC(=O)[C@H](CCC(N)=O)NC2=O)c1 [Example 2257] ({CH2CO}-Y(Carboxymethyl)HD[Phe(3-Me)]Q[Bip]Y[NMeA][dL][Dab][Cha]V[Cit]C[Aun]-OH; thioether N-14),199
4,CC(C)C[C@@H]1NC(=O)[C@H](Cc2c[nH]c3ccccc23)NC(=O)[C@H](CC(=O)O)NC(=O)[C@H](Cc2ccc(O)cc2)NC(=O)[C@H](Cc2ccccc2)NC(=O)CSC[C@@H](C(=O)N[C@@H](CCCN)C(=O)NCCOCCOCC(=O)NCCCCCCCCCCC(=O)O)NC(=O)[C@H](CO)NC(=O)[C@H](C(C)C)NC(=O)[C@H](CC2CCCCC2)NC(=O)[C@H](CCN)NC(=O)[C@@H](CC(C)C)NC(=O)[C@H](C)N(C)C(=O)[C@H](C(C)C)NC(=O)[C@H](Cc2ccc(-c3ccccc3)cc2)NC1=O [Example 2148] ({CH2CO}-FYDWL[Bip]V[NMeA][dL][Dab][Cha]VSC[Orn][AEEA][Aun]-OH; thioether N-14),54.1
5,CCC(C)[C@@H]1NC(=O)[C@H](Cc2ccc(-c3ccccc3)cc2)NC(=O)[C@H](C(C)C)NC(=O)[C@H](Cc2c[nH]c3ccccc23)NC(=O)[C@H](CC(=O)O)NC(=O)[C@H](Cc2ccc(OCC(=O)O)cc2)NC(=O)[C@H](C(C)O)NC(=O)CSC[C@@H](C(=O)N[C@@H](C)C(=O)NCCOCCOCC(=O)N[C@@H](CCC(=O)NCCOCCOCC(=O)N[C@@H](CCC(=O)NCCOCCOCC(=O)N[C@@H](CCCCN)C(=O)NCCCCCCCCCCCCC(=O)O)C(=O)O)C(=O)O)NC(=O)[C@H](C(C)O)NC(=O)[C@H](C(C)C)NC(=O)[C@H](CC2CCCCC2)NC(=O)[C@H](CCN)NC(=O)[C@@H](CC(C)C)NC(=O)[C@H](C)N(C)C1=O (stereo partly drawn) [Example 2009] ({CH2CO}-[Thr(3ξ)]Y(Carboxymethyl)DWV[Bip][Ile(3ξ)][NMeA][dL][Dab][Cha]V[Thr(3ξ)]CA[AEEA][γGlu][AEEA][γGlu][AEEA]K-{NH(CH2)12COOH}; thioether N-14),58.3
6,Cc1cccc(C[C@@H]2NC(=O)[C@H](CC(=O)O)NC(=O)[C@H](Cc3ccc(OCC(=O)O)cc3)NC(=O)[C@H](CN)NC(=O)CSC[C@@H](C(=O)NCCNCCNCC(=O)N[C@@H](CCCN)C(=O)NCCCCCCCCCCC(=O)O)NC(=O)[C@H](CO)NC(=O)[C@H](C(C)C)NC(=O)[C@H](CC(C)C)NC(=O)[C@H](CC(N)=O)NC(=O)[C@@H](CC(C)C)NC(=O)[C@H](C)N(C)C(=O)[C@H](C(C)C)NC(=O)[C@H](Cc3ccc(-c4ccccc4)cc3)NC(=O)[C@H](CC(C)C)NC2=O)c1 [Example 1064] ({CH2CO}-[Dap]Y(Carboxymethyl)D[Phe(3-Me)]L[Bip]V[NMeA][dL]NLVSC-X3; thioether N-14),23.6
7,Cc1cccc(C[C@@H]2NC(=O)[C@H](CC(=O)O)NC(=O)[C@H](Cc3ccc(OCC(=O)O)cc3)NC(=O)[C@H](CN)NC(=O)CSC[C@@H](C(=O)NCC(=O)N[C@@H](CN)C(=O)NCC(=O)NCCCCCCCCCCC(=O)O)NC(=O)[C@H](CO)NC(=O)[C@H](C(C)C)NC(=O)[C@H](CC(C)C)NC(=O)[C@H](CC(N)=O)NC(=O)[C@@H](CC(C)C)NC(=O)[C@H](C)N(C)C(=O)[C@H](C(C)C)NC(=O)[C@H](Cc3ccc(-c4ccccc4)cc3)NC(=O)[C@H](CC(C)C)NC2=O)c1 [Example 1052] ({CH2CO}-[Dap]Y(Carboxymethyl)D[Phe(3-Me)]L[Bip]V[NMeA][dL]NLVSCG[Dap]G[Aun]-OH; thioether N-14),18.4

# The remaining lines, values ahead:
row,IC50 [nM],Compound
1,7.4,CC(=O)NCCCC[C@@H]1NC(=O)[C@H](C(C)(C)O)NC(=O)[C@H](CC2CCCCC2)NC(=O)[C@H](CCN)NC(=O)[C@@H](CC(C)C)NC(=O)[C@H](C)N(C)C(=O)[C@H](CCC(N)=O)NC(=O)[C@H](Cc2ccc(-c3ccccc3)cc2)NC(=O)[C@H](Cc2ccc(C(=O)O)cc2)NC(=O)[C@H](Cc2cccc(C(F)(F)F)c2)NC(=O)[C@H](CC(=O)O)NC(=O)[C@H](Cc2ccc(OCC(=O)O)cc2)NC(=O)[C@H]([C@H](C)N)NC(=O)CSC[C@@H](C(=O)N[C@@H](CCN)C(=O)NCCCCCCCCCCCCC(=O)O)NC1=O [Example 1191] ({CH2CO}-[Abu(3S-NH2)]Y(Carboxymethyl)D[Phe(3-CF3)][Phe(4-COOH)][Bip]Q[NMeA][dL][Dab][Cha][Val(3-OH)]K(Ac)C[Dab]-{NH(CH2)12COOH}; thioether N-14)
2,14.6,Cc1cccc(C[C@@H]2NC(=O)[C@H](CC(=O)O)NC(=O)[C@H](Cc3ccc(OCC(=O)O)cc3)NC(=O)[C@H](C(C)O)NC(=O)CSC[C@@H](C(=O)N[C@@H](CCN)C(=O)NCCOCCOCC(=O)NCCCCCCCCCCC(=O)O)NC(=O)[C@H](CCC(=O)O)NC(=O)[C@H](C(C)C)NC(=O)[C@H](CC3CCCCC3)NC(=O)[C@H](CCN)NC(=O)[C@@H](CC(C)C)NC(=O)[C@H](C)N(C)C(=O)[C@H](Cc3ccc(OCC(=O)O)cc3)NC(=O)[C@H](Cc3ccc(-c4ccccc4)cc3)NC(=O)[C@H](Cc3ccc(C(=O)O)cc3)NC2=O)c1 (stereo partly drawn) [Example 2481] ({CH2CO}-[Thr(3ξ)]Y(Carboxymethyl)D[Phe(3-Me)][Phe(4-COOH)][Bip]Y(Carboxymethyl)[NMeA][dL][Dab][Cha]VEC[Dab][AEEA][Aun]-OH; thioether N-14)
3,10.8,CC(C)C[C@@H]1NC(=O)[C@H](Cc2c[nH]c3ccccc23)NC(=O)[C@H](CC(=O)O)NC(=O)[C@H](Cc2ccc(C(=O)O)cc2)NC(=O)[C@H](Cc2ccc(OCC(=O)O)cc2)NC(=O)CSC[C@@H](C(=O)N[C@@H](CCCN)C(=O)NCCOCCOCC(=O)NCCCCCCCCCCC(N)=O)NC(=O)[C@H](CCCNC(N)=O)NC(=O)[C@H](C(C)C)NC(=O)[C@H](CC2CCCCC2)NC(=O)[C@H](CCN)NC(=O)[C@@H](CC(C)C)NC(=O)[C@H](C)N(C)C(=O)[C@H](C(C)C)NC(=O)[C@H](Cc2ccc(-c3ccccc3)cc2)NC1=O [Example 1215] ({CH2CO}-Y(Carboxymethyl)[Phe(4-COOH)]DWL[Bip]V[NMeA][dL][Dab][Cha]V[Cit]C[Orn][AEEA][Aun]-NH2; thioether N-14)
4,18.3,CC[C@H](C)[C@@H]1NC(=O)[C@H](Cc2ccc(-c3ccccc3)cc2)NC(=O)[C@H](CC(C)C)NC(=O)[C@H](Cc2c[nH]c3ccccc23)NC(=O)[C@H](CC(=O)O)NC(=O)[C@H](Cc2ccc(C(=O)O)cc2)NC(=O)[C@H](Cc2ccc(OCC(=O)O)cc2)NC(=O)CSC[C@@H](C(=O)N[C@@H](CCN)C(=O)NCCOCCOCC(=O)NCCCCCCCCCCC(=O)O)NC(=O)[C@H](CO)NC(=O)[C@H](C(C)C)NC(=O)[C@H](CC2CCCCC2)NC(=O)[C@H](CCN)NC(=O)[C@@H](CC(C)C)NC(=O)[C@H](C)N(C)C1=O [Example 1077] ({CH2CO}-Y(Carboxymethyl)[Phe(4-COOH)]DWL[Bip]I[NMeA][dL][Dab][Cha]VSC[Dab][AEEA][Aun]-OH; thioether N-14)

# Same assay, conditions: PE-labeled PD-L1-Ig 20 nM final, Jurkat-hPD-1 cells; read-out: Jurkat HPD1 PDL1 IC50
row,IC50 [nM],Compound
1,33.8,CC(C)C[C@@H]1NC(=O)[C@H](Cc2c[nH]c3ccccc23)NC(=O)[C@H](CC(=O)O)NC(=O)[C@H](Cc2ccc(C(=O)O)cc2)NC(=O)[C@H](Cc2ccc(OCC(=O)O)cc2)NC(=O)CSC[C@@H](C(=O)NCCOCCOCC(=O)NCCCCCCCCCCC(=O)O)NC(=O)[C@H](Cc2cnc[nH]2)NC(=O)[C@H](C(C)C)NC(=O)[C@H](CC2CCCCC2)NC(=O)[C@H](CCN)NC(=O)[C@@H](CC(C)C)NC(=O)[C@H](C)N(C)C(=O)[C@H](C(C)C)NC(=O)[C@H](Cc2ccc(-c3ccccc3)cc2)NC1=O [Example 2441] ({CH2CO}-Y(Carboxymethyl)[Phe(4-COOH)]DWL[Bip]V[NMeA][dL][Dab][Cha]VHC[AEEA][Aun]-OH; thioether N-14)
2,54.5,Cc1cccc(C[C@@H]2NC(=O)[C@H](CC(=O)O)NC(=O)[C@H](Cc3ccc(OCC(=O)O)cc3)NC(=O)[C@H]([C@@H](C)O)NC(=O)CSC[C@@H](C(=O)NCC(=O)NCCOCCOCC(=O)NCCCCCCCCCCCC(=O)O)NC(=O)CNC(=O)[C@H](C(C)C)NC(=O)[C@H](CC3CCCCC3)NC(=O)[C@@H](CCC(=O)O)NC(=O)[C@@H](CC(C)C)NC(=O)[C@H](C)N(C)C(=O)[C@H](Cc3ccc(OCC(=O)O)cc3)NC(=O)[C@H](Cc3ccc(-c4ccccc4)cc3)NC(=O)[C@H](Cc3ccc(OCC(=O)O)cc3)NC2=O)c1 [Example 2688] ({CH2CO}-TY(Carboxymethyl)D[Phe(3-Me)]Y(Carboxymethyl)[Bip]Y(Carboxymethyl)[NMeA][dL][dE][Cha]VGCG[AEEA][12Ado]-OH; thioether N-14)
